Test results taken from patent publication US9169260B2 (MERCK SHARP & DOHME CORP., priority 2011, dated 2015).

The molecules below were run against GST tagged IRAK-4 (Homo sapiens (Human), UniProt Q9NWZ3) (assay: IRAK-4 Kinase Assay (IMAP fluorescence polarization)). Details: not given.
Format: biochemical
In short: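 Activity was read by IMAP fluorescence polarization, where phosphopeptide binding to M(III) nanoparticles raises FP. The 30-minute, 25° C reaction used 100 μM ATP, 100 nM RP7030 substrate and 0.5 nM GST-IRAK-4 in pH 7.2 Tris buffer with MgCl2, DTT and Tween 20.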

Chain of GST tagged IRAK-4 (Q9NWZ3 whole entry): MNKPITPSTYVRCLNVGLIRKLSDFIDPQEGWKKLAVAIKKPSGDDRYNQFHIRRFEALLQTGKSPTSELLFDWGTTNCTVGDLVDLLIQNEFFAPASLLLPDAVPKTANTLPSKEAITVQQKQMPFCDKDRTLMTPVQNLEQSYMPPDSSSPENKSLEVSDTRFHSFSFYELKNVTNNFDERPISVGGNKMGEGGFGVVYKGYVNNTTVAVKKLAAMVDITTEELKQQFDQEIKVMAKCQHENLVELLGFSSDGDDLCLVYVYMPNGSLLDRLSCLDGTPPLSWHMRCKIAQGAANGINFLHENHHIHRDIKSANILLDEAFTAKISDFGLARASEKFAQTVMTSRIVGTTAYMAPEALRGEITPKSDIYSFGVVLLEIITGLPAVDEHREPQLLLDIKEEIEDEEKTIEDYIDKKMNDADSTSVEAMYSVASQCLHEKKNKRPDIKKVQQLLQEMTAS

Molecule | IC50
N-(3-(1-methylpiperidin-4-yl)-1-(5-methylpyridin-2-yl)-1H-pyrazol-5-yl)pyrazolo[1,5-a]pyrimidine-3-carboxamide [Example 399] | < 0.1 µM
N-(3-(4-(aminomethyl)cyclohexyl)-1-(p-tolyl)-1H-pyrazol-5-yl)pyrazolo[1,5-a]pyrimidine-3-carboxamide [Example 184] | < 0.1 µM

Same assay, conditions: 100 μM ATP, 30 minutes at 25° C.

IC50 | Molecule
< 0.1 µM | Cc1ccc(-n2nc(C3CCN(S(=O)(=O)Cc4ccccn4)CC3)cc2NC(=O)c2cnn3cccnc23)cc1 [Example 397, N-[1-(4-methylphenyl)-3-{1-[(pyridin-2-ylmethyl)sulfonyl]piperidin-4-yl}-1H-pyrazol-5-yl]pyrazolo[1,5-a]pyrimidine-3-carboxamide]
< 0.1 µM | CN1CCC(c2cc(NC(=O)c3cnn4cccnc34)n(-c3ccc(C4CC4)cc3F)n2)CC1 [Example 398, N-(1-(4-cyclopropyl-2-fluorophenyl)-3-(1-methylpiperidin-4-yl)-1H-pyrazol-5-yl)pyrazolo[1,5-a]pyrimidine-3-carboxamide]
< 0.1 µM | N3-(3-(1-(methylsulfonyl)piperidin-4-yl)-1-(p-tolyl)-1H-pyrazol-5-yl)pyrazolo[1,5-a]pyrimidine-3,6-dicarboxamide [Example 192]

Same assay, conditions: 100 μM ATP, 30 minutes at 25° C.; μM

IC50 | Molecule
< 1 µM | Cc1ccc(-n2nc(C3CCN(S(=O)(=O)c4cccc(C#N)c4)CC3)cc2NC(=O)c2cnn3cccnc23)cc1 [Example 374, N-[3-{1-[(3-cyanophenyl)sulfonyl]piperidin-4-yl}-1-(4-methylphenyl)-1H-pyrazol-5-yl]pyrazolo[1,5-a]pyrimidine-3-carboxamide]
< 1 µM | Cc1ccc(-n2nc(C3CCN(S(=O)(=O)c4cnn(C)c4)CC3)cc2NC(=O)c2cnn3cccnc23)cc1 [Example 375, N-[1-(4-methylphenyl)-3-{1-[(1-methyl-1H-pyrazol-4-yl)sulfonyl]piperidin-4-yl}-1H-pyrazol-5-yl]pyrazolo[1,5-a]pyrimidine-3-carboxamide]
< 1 µM | Cc1ccc(-n2nc(C3CCN(S(=O)(=O)c4cn(C)cn4)CC3)cc2NC(=O)c2cnn3cccnc23)cc1 [Example 376, N-[3-{1-[(1-methyl-1H-imidazol-4-yl)sulfonyl]piperidin-4-yl}-1-(4-methylphenyl)-1H-pyrazol-5-yl]pyrazolo[1,5-a]pyrimidine-3-carboxamide]
> 1 µM | Cc1ccc(-n2nc(C3CCN(S(=O)(=O)c4ccc5ccccc5c4)CC3)cc2NC(=O)c2cnn3cccnc23)cc1 [Example 377, N-{1-(4-methylphenyl)-3-[1-(naphthalen-2-ylsulfonyl)piperidin-4-yl]-1H-pyrazol-5-yl}pyrazolo[1,5-a]pyrimidine-3-carboxamide]
< 1 µM | Cc1ccc(-n2nc(C3CCN(S(=O)(=O)c4ccccc4F)CC3)cc2NC(=O)c2cnn3cccnc23)cc1 [Example 378, N-[3-{1-[(2-fluorophenyl)sulfonyl]piperidin-4-yl}-1-(4-methylphenyl)-1H-pyrazol-5-yl]pyrazolo[1,5-a]pyrimidine-3-carboxamide]
< 1 µM | Cc1ccc(-n2nc(C3CCN(S(=O)(=O)c4cccc(F)c4)CC3)cc2NC(=O)c2cnn3cccnc23)cc1 [Example 379, N-[3-{1-[(3-fluorophenyl)sulfonyl]piperidin-4-yl}-1-(4-methylphenyl)-1H-pyrazol-5-yl]pyrazolo[1,5-a]pyrimidine-3-carboxamide]
< 1 µM | Cc1ccc(-n2nc(C3CCN(S(=O)(=O)c4ccc(C#N)cc4)CC3)cc2NC(=O)c2cnn3cccnc23)cc1 [Example 380, N-[3-{1-[(4-cyanophenyl)sulfonyl]piperidin-4-yl}-1-(4-methylphenyl)-1H-pyrazol-5-yl]pyrazolo[1,5-a]pyrimidine-3-carboxamide]
> 1 µM | Cc1ccc(-n2nc(C3CCN(S(=O)(=O)c4ccc(C(F)(F)F)cc4)CC3)cc2NC(=O)c2cnn3cccnc23)cc1 [Example 381, N-[1-(4-methylphenyl)-3-(1-{[4-(trifluoromethyl)phenyl]sulfonyl}piperidin-4-yl)-1H-pyrazol-5-yl]pyrazolo[1,5-a]pyrimidine-3-carboxamide]
< 1 µM | Cc1ccc(-n2nc(C3CCN(S(=O)(=O)c4ccc(Cl)nc4)CC3)cc2NC(=O)c2cnn3cccnc23)cc1 [Example 382]
< 1 µM | Cc1ccc(-n2nc(C3CCN(S(=O)(=O)c4ccc(N5CCOCC5)nc4)CC3)cc2NC(=O)c2cnn3cccnc23)cc1 [Example 383, N-[1-(4-methylphenyl)-3-{1-[(6-morpholin-4-ylpyridin-3-yl)sulfonyl]piperidin-4-yl}-1H-pyrazol-5-yl]pyrazolo[1,5-a]pyrimidine-3-carboxamide]
< 1 µM | Cc1ccc(-n2nc(C3CCN(S(=O)(=O)c4ccc5ncsc5c4)CC3)cc2NC(=O)c2cnn3cccnc23)cc1 [Example 384, N-{3-[1-(1,3-benzothiazol-6-ylsulfonyl)piperidin-4-yl]-1-(4-methylphenyl)-1H-pyrazol-5-yl}pyrazolo[1,5-a]pyrimidine-3-carboxamide]
> 1 µM | COc1cccc(S(=O)(=O)N2CCC(c3cc(NC(=O)c4cnn5cccnc45)n(-c4ccc(C)cc4)n3)CC2)c1 [Example 385, N-[3-{1-[(3-methoxyphenyl)sulfonyl]piperidin-4-yl}-1-(4-methylphenyl)-1H-pyrazol-5-yl]pyrazolo[1,5-a]pyrimidine-3-carboxamide]
< 1 µM | Cc1ccc(-n2nc(C3CCN(S(=O)(=O)c4cn(C)c(C)n4)CC3)cc2NC(=O)c2cnn3cccnc23)cc1 [Example 386, N-[3-{1-[(1,2-dimethyl-1H-imidazol-4-yl)sulfonyl]piperidin-4-yl}-1-(4-methylphenyl)-1H-pyrazol-5-yl]pyrazolo[1,5-a]pyrimidine-3-carboxamide]
< 1 µM | Cc1ccc(-n2nc(C3CCN(S(=O)(=O)Cc4ccccc4)CC3)cc2NC(=O)c2cnn3cccnc23)cc1 [Example 387, N-{3-[1-(benzylsulfonyl)piperidin-4-yl]-1-(4-methylphenyl)-1H-pyrazol-5-yl}pyrazolo[1,5-a]pyrimidine-3-carboxamide]
< 1 µM | Cc1ccc(-n2nc(C3CCN(S(=O)(=O)c4cccnc4Cl)CC3)cc2NC(=O)c2cnn3cccnc23)cc1 [Example 388, N-[3-{1-[(2-chloropyridin-3-yl)sulfonyl]piperidin-4-yl}-1-(4-methylphenyl)-1H-pyrazol-5-yl]pyrazolo[1,5-a]pyrimidine-3-carboxamide]
< 1 µM | COc1ccc(S(=O)(=O)N2CCC(c3cc(NC(=O)c4cnn5cccnc45)n(-c4ccc(C)cc4)n3)CC2)cn1 [Example 389, N-[3-{1-[(6-methoxypyridin-3-yl)sulfonyl]piperidin-4-yl}-1-(4-methylphenyl)-1H-pyrazol-5-yl]pyrazolo[1,5-a]pyrimidine-3-carboxamide]
> 1 µM | Cc1ccc(-n2nc(C3CCN(S(=O)(=O)c4c(Cl)cccc4Cl)CC3)cc2NC(=O)c2cnn3cccnc23)cc1 [Example 390, N-[3-{1-[(2,6-dichlorophenyl)sulfonyl]piperidin-4-yl}-1-(4-methylphenyl)-1H-pyrazol-5-yl]pyrazolo[1,5-a]pyrimidine-3-carboxamide]
> 1 µM | Cc1ccc(-n2nc(C3CCN(S(=O)(=O)c4ccc(Cl)cc4Cl)CC3)cc2NC(=O)c2cnn3cccnc23)cc1 [Example 391, N-[3-{1[(2,4-dichlorophenyl)sulfonyl]piperidin-4-yl}-1-(4-methylphenyl)-1H-pyrazol-5-yl]pyrazolo[1,5-a]pyrimidine-3-carboxamide]
> 1 µM | Cc1ccc(-n2nc(C3CCN(S(=O)(=O)c4ccc(Cl)s4)CC3)cc2NC(=O)c2cnn3cccnc23)cc1 [Example 393, N-[3-{1-[(5-chlorothiophen-2-yl)sulfonyl]piperidin-4-yl}-1-(4-methylphenyl)-1H-pyrazol-5-yl]pyrazolo[1,5-a]pyrimidine-3-carboxamide]
< 1 µM | Cc1ccc(-n2nc(C3CCN(S(=O)(=O)c4cccc(C(F)(F)F)n4)CC3)cc2NC(=O)c2cnn3cccnc23)cc1 [Example 394, N-[1-(4-methylphenyl)-3-(1-{[6-(trifluoromethyl)pyridin-2-yl]sulfonyl}piperidin-4-yl)-1H-pyrazol-5-yl]pyrazolo[1,5-a]pyrimidine-3-carboxamide]
< 1 µM | Cc1ccc(-n2nc(C3CCN(S(=O)(=O)CCc4ccccc4)CC3)cc2NC(=O)c2cnn3cccnc23)cc1 [Example 395, N-[1-(4-methylphenyl)-3-{1-[(2-phenylethyl)sulfonyl]piperidin-4-yl}-1H-pyrazol-5-yl]pyrazolo[1,5-a]pyrimidine-3-carboxamide]
< 1 µM | Cc1ccc(-n2nc(C3CCN(S(=O)(=O)c4cccc5cccnc45)CC3)cc2NC(=O)c2cnn3cccnc23)cc1 [Example 396, N-{1-(4-methylphenyl)-3-[1-(quinolin-8-ylsulfonyl)piperidin-4-yl]-1H-pyrazol-5-yl}pyrazolo[1,5-a]pyrimidine-3-carboxamide]

Molecule | IC50
methyl((4-(5-(pyrazolo[1,5-a]pyrimidine-3-carboxamido)-1-(p-tolyl)-1H-pyrazol-3-yl)cyclohexyl)methyl)carbamate [Example 183] | < 1 µM
